Legend:
P2X4 [1] = biological target: T1, P2X4 (Homo sapiens, UniProt Q99571); assay: Assay A: human P2X4 receptor cell line, FLIPR calcium assay (Fluo-8, agonist Bz-ATP at EC80); assay type: cell-based; design: host or cells: HEK 293 (recombinant, constitutively expressing; with mitochondrial photina in Assay B); settings: HEK human P2X4 cells, Fluo-8 FLIPR; for IC50: Bz-ATP at EC80, average values; for Emax: percentage of maximal inhibition, read-out: human P2X4 Assay A avg Efficacy
T1 sequence (Q99571 1-388): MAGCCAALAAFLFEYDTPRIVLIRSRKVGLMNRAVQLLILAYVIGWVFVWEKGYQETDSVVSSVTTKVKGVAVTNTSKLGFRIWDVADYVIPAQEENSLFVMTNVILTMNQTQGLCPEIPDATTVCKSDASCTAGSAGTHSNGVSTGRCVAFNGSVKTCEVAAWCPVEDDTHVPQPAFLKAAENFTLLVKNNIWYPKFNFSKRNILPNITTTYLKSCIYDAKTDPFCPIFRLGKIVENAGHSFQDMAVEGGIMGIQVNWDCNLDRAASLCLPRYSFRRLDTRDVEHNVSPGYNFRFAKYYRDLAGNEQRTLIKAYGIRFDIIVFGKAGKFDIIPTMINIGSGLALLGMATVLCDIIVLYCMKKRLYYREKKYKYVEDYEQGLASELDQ
Experimental: A fluorescent imaging plate reader (FLEX/FLIPR station; Molecular Devices) was used to monitor intracellular calcium levels using the calcium-chelating dye Fluo-8 (Molecular Probes). […] Cells expressing purinergic receptors human P2X4 (HEK human P2X4: PerkinElmer, Product No.: AX-015-PCF) were plated at a density of 20,000 cells/well in poly-D-lysine-coated 384-well plates approximately 20 hours before beginning the assay. On the day of the assay, the medium was removed and 30 μl of dye buffer (Hank's balanced salt solution, 10 mM HEPES, 1.8 mM CaCl2), 1 mM MgCl2, 2 mM probenecid, 5 mM D-glucose monohydrate, 5 μM Fluo-8, pH=7.4) was added for 30 min at […] and 5% CO2. The antagonist in probenecid buffer (Hank's balanced salt solution, 10 mM HEPES, 1.8 mM CaCl2, 1 mM MgCl2, 2 mM probenecid, 5 mM D-glucose monohydrate, pH=7.4) was added in a volume of 10 μl and allowed to incubate for 30 min at room temperature. The final assay DMSO concentration is 0.5%. The agonist, Bz-ATP, is added in a volume of 10 μl at a concentration representing the EC80 value. The fluorescence was measured for an interval of 120 sec at 2 sec intervals and analyzed based on the increase in peak relative fluorescence units (RFU) compared to the basal fluorescence. Peak fluorescence was used to determine the response to agonist obtained at each concentration of antagonist by the following equation:
% Response=100*(RFU(drug)−RFU(control))/(RFU(DMSO)−RFU(control))
The compounds were tested in triplicates per plate and mean values were plotted in Excel XLFit to determine IC50 values, percentage of maximal inhibition and the Hill coefficients.

P2X4 [2] = biological target: T1, P2X4; assay: Assay B: human P2X4 receptor cell line, mitochondrial photina luminescence (agonist Bz-ATP at EC50); assay type: cell-based; design: host or cells: HEK 293 (recombinant, constitutively expressing; with mitochondrial photina in Assay B); settings: HEK human P2X4 cell line, photina luminescence, agonist Bz-ATP at EC50, average; for Emax: read-out: human P2X4 Assay B avg Efficacy
Method in brief: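 Recombinant cell line constitutively expressing human P2X4 and mitochondrial photina photoprotein, reconstituted with coelenterazine. Receptor stimulated with Bz-ATP at EC50; calcium influx read immediately as luminescence.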

Structure (SMILES)	IC50 (P2X4 [1]) [nM]	Emax (P2X4 [1]) [%]	IC50 (P2X4 [2]) [nM]	Emax (P2X4 [2]) [%]
N#CC1(COc2ccc(NC(=O)Cc3ccccc3Cl)cc2S(N)(=O)=O)CCOCC1 [Example 055, 2-(2-Chlorophenyl)-N-{4-[(4-cyanotetrahydro-2H-pyran-4-yl)methoxy]-3-sulfamoylphenyl}acetamide]			1160	71
CC(C)c1ccccc1CC(=O)Nc1ccc(Oc2cccc(Cl)c2)c(S(N)(=O)=O)c1 [Example 087, N-[4-(3-Chlorophenoxy)-3-sulfamoylphenyl]-2-(2-isopropylphenyl)acetamide]			196	76
N#Cc1ccc(Oc2ccc(NC(=O)Cc3ccccc3Cl)cc2S(N)(=O)=O)cc1C#N [Example 025, 2-(2-Chlorophenyl)-N-[4-(3,4-dicyanophenoxy)-3-sulfamoylphenyl]acetamide]			> 16000	50
N#Cc1ncc(Cl)cc1Oc1ccc(NC(=O)Cc2ccccc2Cl)cc1S(N)(=O)=O [Example 048, N-{4-[(5-Chloro-2-cyanopyridin-3-yl)oxy]-3-sulfamoylphenyl}-2-(2-chlorophenyl)acetamide]			11600	73
COc1ccc(CC(=O)Nc2ccc(Oc3cccc(Cl)c3)c(S(N)(=O)=O)c2)cc1 [Example 190, N-[4-(3-Chlorophenoxy)-3-sulfamoylphenyl]-2-(4-methoxyphenyl)acetamide]			171	65
NS(=O)(=O)c1cc(NC(=O)Cc2ccccc2)cc(F)c1Oc1cccc(Cl)c1 [Example 170, N-[4-(3-Chlorophenoxy)-3-fluoro-5-sulfamoylphenyl]-2-phenylacetamide]			> 16000	36
COc1ccccc1Oc1ccc(NC(=O)Cc2ccc(C(F)(F)F)cc2)cc1S(N)(=O)=O [Example 071, N-[4-(2-Methoxyphenoxy)-3-sulfamoylphenyl]-2-[4-(trifluoromethyl)phenyl]acetamide]			2090	73
COCCN(C)C(=O)c1ccccc1CC(=O)Nc1ccc(Oc2cccc(Cl)c2)c(S(N)(=O)=O)c1 [Example 197, 2-(2-{[4-(3-Chlorophenoxy)-3-sulfamoylphenyl]amino}-2-oxoethyl)-N-(2-methoxyethyl)-N-methylbenzamide]			4120	68
NS(=O)(=O)c1cc(NC(=O)Cc2ccccc2)ccc1Oc1cncc(Cl)c1 [Example 078, N-{4-[(5-Chloropyridin-3-yl)oxy]-3-sulfamoylphenyl}-2-phenylacetamide]			706	86
CN(C)C(=O)c1ccccc1CC(=O)Nc1ccc(Oc2cccc(Cl)c2)c(S(N)(=O)=O)c1 [Example 198, 2-(2-{[4-(3-Chlorophenoxy)-3-sulfamoylphenyl]amino}-2-oxoethyl)-N,N-dimethylbenzamide]			4740	60
N#Cc1ccc(Oc2ccc(NC(=O)Cc3ccccc3Cl)cc2S(N)(=O)=O)cc1 [Example 030, 2-(2-Chlorophenyl)-N-[(4-cyanophenoxy)-3-sulfamoylphenyl]acetamide]			5080	99
NS(=O)(=O)c1cc(NC(=O)Cc2cccnc2Cl)ccc1Oc1cccc(Cl)c1 [Example 093, N-[4-(3-Chlorophenoxy)-3-sulfamoylphenyl]-2-(2-chloropyridin-3-yl)acetamide]			216	68
NS(=O)(=O)c1cc(NC(=O)C(F)(F)c2ccccc2Cl)ccc1Oc1cccc(Cl)c1 [Example 094, N-[4-(3-Chlorophenoxy)-3-sulfamoylphenyl]-2-(2-chlorophenyl)-2,2-difluoroacetamide]			200	74

More lines, now with the values ahead:

IC50 (P2X4 [1]) [nM]	Emax (P2X4 [1]) [%]	IC50 (P2X4 [2]) [nM]	Emax (P2X4 [2]) [%]	Structure (SMILES)
10900	82			NS(=O)(=O)c1cc(NC(=O)Cc2ccccc2Cl)ccc1Oc1cc(C(F)(F)F)c(Cl)cn1 [Example 284, 2-(2-Chlorophenyl)-N-(4-{[5-chloro-4-(trifluoromethyl)pyridin-2-yl]oxy}-3-sulfamoyl-phenyl)acetamide]
107	84			NS(=O)(=O)c1cc(NC(=O)Cc2ccccc2C(F)(F)F)cnc1Oc1cccc(Cl)c1 [Example 294, N-[6-(3-Chlorophenoxy)-5-sulfamoylpyridin-3-yl]-2-[2-(trifluoromethyl)phenyl]-acetamide]
59	78			NS(=O)(=O)c1cc(NC(=O)Cc2cc(F)ccc2Cl)cnc1Oc1cccc(Cl)c1 [Example 296, 2-(2-Chloro-5-fluorophenyl)-N-[6-(3-chlorophenoxy)-5-sulfamoylpyridin-3-yl]-acetamide]
	77			NS(=O)(=O)c1cc(NC(=O)Cc2ccccc2Cl)ccc1OCC1COCCO1 (stereo not shown) [Example 268, 2-(2-Chlorophenyl)-N-[4-(1,4-dioxan-2-ylmethoxy)-3-sulfamoylphenyl]acetamide]
	89			[2H]c1c([2H])c([2H])c(Oc2ccc(NC(=O)Cc3ccccc3Cl)cc2S(N)(=O)=O)c([2H])c1[2H] [Example 261, 2-(2-Chlorophenyl)-N-{4-[(^2H5)phenyloxy]-3-sulfamoylphenyl}acetamide]
	95			[2H]c1c([2H])c([2H])c(Oc2ccc(NC(=O)Cc3ccccc3Cl)cc2S(N)(=O)=O)c(Cl)c1[2H] [Example 263, 2-(2-Chlorophenyl)-N-(4-{[2-chloro(^2H4)phenyl]oxy}-3-sulfamoylphenyl)acetamide]
155	85			NS(=O)(=O)c1cc(NC(=O)Cc2ccccc2C(F)F)cnc1Oc1cccc(Cl)c1 [Example 295, N-[6-(3-Chlorophenoxy)-5-sulfamoylpyridin-3-yl]-2-[2-(difluoromethyl)phenyl]-acetamide]
> 25000	34			NS(=O)(=O)c1cc(NC(=O)Cc2ccccc2F)cc(F)c1Oc1cccc(Cl)c1 [Example 289, N-[4-(3-Chlorophenoxy)-3-fluoro-5-sulfamoylphenyl]-2-(2-fluorophenyl)acetamide]
4440	76			NS(=O)(=O)c1cc(NC(=O)Cc2ccccc2Cl)ccc1OCC1(Cl)CCOCC1 [Example 267, 2-(2-Chlorophenyl)-N-{4-[(4-chlorotetrahydro-2H-pyran-4-yl)methoxy]-3-sulfamoylphenyl}acetamide]
355	85			COc1cc(C)cc(Cl)c1CC(=O)Nc1ccc(Oc2cccc(Cl)c2)c(S(N)(=O)=O)c1 [Example 257, 2-(2-Chloro-6-methoxy-4-methylphenyl)-N-[4-(3-chlorophenoxy)-3-sulfamoylphenyl]acetamide]
2490	90			CC(C(=O)Nc1ccc(Oc2cccc(Cl)c2)c(S(N)(=O)=O)c1)c1c(Cl)cccc1Cl (stereo not shown) [Example 260, N-[4-(3-Chlorophenoxy)-3-sulfamoylphenyl]-2-(2,6-dichlorophenyl)propanamide]
	82			NS(=O)(=O)c1cc(NC(=O)Cc2ccc(F)cc2Cl)ccc1OCC1CCOCC1 [Example 282, 2-(2-Chloro-4-fluorophenyl)-N-[3-sulfamoyl-4-(tetrahydro-2H-pyran-4-ylmethoxy)phenyl]acetamide]
		1280	62	NS(=O)(=O)c1cc(NC(=O)Cc2ccccc2)ccc1Oc1ccc(F)cc1 [Example 248, N-[4-(4-Fluorophenoxy)-3-sulfamoylphenyl]-2-phenylacetamide]
		5970	68	NS(=O)(=O)c1cc(NC(=O)Cc2ccccc2)ccc1OCC1CC1 [Example 245, N-[4-(Cyclopropylmethoxy)-3-sulfamoylphenyl]-2-phenylacetamide]
		1850	82	NS(=O)(=O)c1cc(NC(=O)Cc2ccc(F)cc2)ccc1Oc1ccc(Cl)cc1 [Example 223, N-[4-(4-Chlorophenoxy)-3-sulfamoylphenyl]-2-(4-fluorophenyl)acetamide]

Reference: patent US20180338980A1, “AROMATIC SULFONAMIDE DERIVATIVES” (BAYER PHARMA AKTIENGESELLSCHAFT, priority 2015, published 2018)
